Test results from US9833497B2, “Human originated EGF domain proteins and use of the same” (CHENGDU SOURCEBIO LIMITED-LIABILITY COMPANY, priority 2013, dated 2017).

Columns and labels:
Assay type in all cases: cell-based
Proteus vulgaris = assay: MIC against Gram-negative bacteria: Proteus vulgaris; settings: 10 h cultivation at 37° C.; for MIC: P. vulgaris; for MIC P. vulgaris: 5×10^5 CFU/mL, two-fold serial dilution
Procedure, shortened: (§1)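 Inocula prepared by growing LB cultures at 37° C to 0.5 McFarland, centrifuging at 4000×g, and resuspending in fresh medium. Final density 5×10^5 CFU/mL per well with two-fold dilutions of purified EGF domain protein; shaking incubation at 37° C.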

Enterobacter cloacae = assay: MIC against Gram-negative bacteria: Enterobacter cloacae; settings: 10 h cultivation at 37° C.; for MIC: E. cloacae; for MIC E. cloacae: 5×10^5 CFU/mL, two-fold serial dilution
Procedure, shortened: as §1

Moraxella catarrhalis = assay: MIC against Gram-negative bacteria: Moraxella catarrhalis; settings: 10 h cultivation at 37° C.; for MIC: M. catarrhalis; for MIC M. catarrhalis: 5×10^5 CFU/mL, two-fold serial dilution
Procedure, shortened: as §1

E. coli BL21 = assay: MIC against Gram-negative bacteria: E. coli BL21; settings: 10 h cultivation at 37° C.; for MIC: E. coli BL21; for MIC E. coli BL21: 5×10^5 CFU/mL, two-fold serial dilution
Procedure, shortened: as §1

E. coli DH5α = assay: Antibacterial activity: MIC and growth curve against E. coli DH5α in 96-well plate; settings: minimal inhibitory concentration against E. coli DH5α; 96-well plate, 5×10^5 CFU/mL, 37° C., judged after 8 h
Procedure, shortened: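 Log-phase bacteria (OD600 ~0.5) resuspended in LB at 5×10^5 CFU/mL, exposed to recombinant protein at 50, 25, 12.5 μg/mL final in triplicate, 37 °C shaking at 175 rpm. OD600 read every 30 min; MIC is lowest concentration showing no growth.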

Aeromonas hydrophila = assay: MIC against Gram-negative bacteria: Aeromonas hydrophila; settings: 10 h cultivation at 37° C.; for MIC: A. hydrophila; for MIC A. hydrophila: 5×10^5 CFU/mL, two-fold serial dilution
Procedure, shortened: as §1

Proteus mirabilis = assay: MIC against Gram-negative bacteria: Proteus mirabilis; settings: 10 h cultivation at 37° C.; for MIC: P. mirabilis; for MIC P. mirabilis: 5×10^5 CFU/mL, two-fold serial dilution
Procedure, shortened: as §1

Citrobacter diversus = assay: MIC against Gram-negative bacteria: Citrobacter diversus; settings: 10 h cultivation at 37° C.; for MIC: C. diversus; for MIC C. diversus: 5×10^5 CFU/mL, two-fold serial dilution
Procedure, shortened: as §1

Klebsiella pneumonia = assay: MIC against Gram-negative bacteria: Klebsiella pneumonia; settings: 10 h cultivation at 37° C.; for MIC: K. pneumonia; for MIC K. pneumonia: 5×10^5 CFU/mL, two-fold serial dilution
Procedure, shortened: as §1

Pseudomonas aeruginosa = assay: MIC against Gram-negative bacteria: Pseudomonas aeruginosa; settings: 10 h cultivation at 37° C.; for MIC: P. aeruginosa; for MIC P. aeruginosa: 5×10^5 CFU/mL, two-fold serial dilution
Procedure, shortened: as §1

Serratia marcescens = assay: MIC against Gram-negative bacteria: Serratia marcescens; settings: 10 h cultivation at 37° C.; for MIC: S. marcescens; for MIC S. marcescens: 5×10^5 CFU/mL, two-fold serial dilution
Procedure, shortened: as §1

Substance | MIC (E. coli DH5α) | MIC P. vulgaris (Proteus vulgaris) | MIC E. cloacae (Enterobacter cloacae) | MIC M. catarrhalis (Moraxella catarrhalis) | MIC E. coli BL21 (E. coli BL21) | MIC A. hydrophila (Aeromonas hydrophila) | MIC P. mirabilis (Proteus mirabilis) | MIC C. diversus (Citrobacter diversus) | MIC K. pneumonia (Klebsiella pneumonia) | MIC P. aeruginosa (Pseudomonas aeruginosa) | MIC S. marcescens (Serratia marcescens) | further results
PRT1039 (SSGICDEASCIHGGTCTAIKADSYICLCPLGFKGRHCE; listed as Homo sapiens) | 50 µg/mL |  |  |  |  |  |  |  |  |  |  | MIC (Proteus vulgaris): 12.5 µg/mL; MIC (Enterobacter cloacae): 25 µg/mL; MIC (Moraxella catarrhalis): 12.5 µg/mL; MIC (E. coli BL21): 50 µg/mL; MIC (Aeromonas hydrophila): 50 µg/mL; MIC (Proteus mirabilis): 50 µg/mL; MIC (Citrobacter diversus): 50 µg/mL; MIC (Klebsiella pneumonia): 12.5 µg/mL; MIC (Pseudomonas aeruginosa): 50 µg/mL; MIC (Serratia marcescens): 50 µg/mL
PRT1040 (AAHPCVRAPCAHGGSCRPRKEGYDCDCPLGFEGLHCQ; listed as Homo sapiens) | 12.5 µg/mL |  |  |  |  |  |  |  |  |  |  | MIC (Proteus vulgaris): 25 µg/mL; MIC (Enterobacter cloacae): 50 µg/mL; MIC (Moraxella catarrhalis): 25 µg/mL; MIC (E. coli BL21): 50 µg/mL; MIC (Aeromonas hydrophila): 12.5 µg/mL; MIC (Proteus mirabilis): 50 µg/mL; MIC (Citrobacter diversus): 50 µg/mL; MIC (Klebsiella pneumonia): 25 µg/mL; MIC (Pseudomonas aeruginosa): 50 µg/mL; MIC (Serratia marcescens): 50 µg/mL
PRT1041 (VPLCAQECVHGRCVAPNQCQCVPGWRGDDCS; listed as Homo sapiens) | 12.5 µg/mL |  |  |  |  |  |  |  |  |  |  | MIC (Proteus vulgaris): 50 µg/mL; MIC (Enterobacter cloacae): 50 µg/mL; MIC (Moraxella catarrhalis): 50 µg/mL; MIC (E. coli BL21): 25 µg/mL; MIC (Aeromonas hydrophila): 50 µg/mL; MIC (Proteus mirabilis): 25 µg/mL; MIC (Citrobacter diversus): 12.5 µg/mL; MIC (Klebsiella pneumonia): 25 µg/mL; MIC (Pseudomonas aeruginosa): 50 µg/mL; MIC (Serratia marcescens): 25 µg/mL
PRT1042 (SGFFCPSTHSCQNGGVFQTPQGSCSCPPGWMGTICS; listed as Homo sapiens) | 25 µg/mL |  |  |  |  |  |  |  |  |  |  | MIC (Proteus vulgaris): 25 µg/mL; MIC (Enterobacter cloacae): 50 µg/mL; MIC (Moraxella catarrhalis): 12.5 µg/mL; MIC (E. coli BL21): 50 µg/mL; MIC (Aeromonas hydrophila): 50 µg/mL; MIC (Proteus mirabilis): 50 µg/mL; MIC (Citrobacter diversus): 50 µg/mL; MIC (Klebsiella pneumonia): 25 µg/mL; MIC (Pseudomonas aeruginosa): 12.5 µg/mL; MIC (Serratia marcescens): 50 µg/mL
PRT1043 (HGPNCSQECRCHNGGLCDRFTGQCRCAPGYTGDRCR; listed as Homo sapiens) | 50 µg/mL |  |  |  |  |  |  |  |  |  |  | MIC (Proteus vulgaris): 50 µg/mL; MIC (Enterobacter cloacae): 25 µg/mL; MIC (Moraxella catarrhalis): 25 µg/mL; MIC (E. coli BL21): 12.5 µg/mL; MIC (Aeromonas hydrophila): 25 µg/mL; MIC (Proteus mirabilis): 12.5 µg/mL; MIC (Citrobacter diversus): 50 µg/mL; MIC (Klebsiella pneumonia): 50 µg/mL; MIC (Pseudomonas aeruginosa): 25 µg/mL; MIC (Serratia marcescens): 50 µg/mL
PRT1044 (FGQDCAETCDCAPDARCFPANGACLCEHGFTGDRCT; listed as Homo sapiens) | 100 µg/mL | 25 µg/mL | 50 µg/mL | 25 µg/mL | 50 µg/mL | 50 µg/mL | 12.5 µg/mL | 50 µg/mL | 12.5 µg/mL | 50 µg/mL | 50 µg/mL | 
PRT1045 (HGPGCQEHCLCLHGGVCQATSGLCQCAPGYTGPHCA; listed as Homo sapiens) | 25 µg/mL | 50 µg/mL | 12.5 µg/mL | 50 µg/mL | 50 µg/mL | 50 µg/mL | 12.5 µg/mL | 50 µg/mL | 50 µg/mL | 25 µg/mL | 50 µg/mL | 
PRT1046 (WGFSCNASCQCAHEAVCSPQTGACTCTPGWHGAHCQ; listed as Homo sapiens) | 50 µg/mL | 25 µg/mL | 25 µg/mL | 50 µg/mL | 25 µg/mL | 12.5 µg/mL | 50 µg/mL | 50 µg/mL | 25 µg/mL | 50 µg/mL | 12.5 µg/mL | 
PRT1047 (SNTCTCKNGGTCLPENGNCVCAPGFRGPSCQ; listed as Homo sapiens) | 50 µg/mL | 12.5 µg/mL | 25 µg/mL | 12.5 µg/mL | 50 µg/mL | 12.5 µg/mL | 12.5 µg/mL | 50 µg/mL | 50 µg/mL | 25 µg/mL | 12.5 µg/mL | 
PRT1048 (YGKRCVPCKCANHSFCHPSNGTCYCLAGWTGPDCS; listed as Homo sapiens) | 12.5 µg/mL | 50 µg/mL | 12.5 µg/mL | 25 µg/mL | 25 µg/mL | 25 µg/mL | 12.5 µg/mL | 50 µg/mL | 25 µg/mL | 50 µg/mL | 12.5 µg/mL | 
PRT1049 (WGENCAQTCQCHHGGTCHPQDGSCICPLGWTGHHCL; listed as Homo sapiens) | 12.5 µg/mL | 12.5 µg/mL | 12.5 µg/mL | 12.5 µg/mL | 25 µg/mL | 12.5 µg/mL | 50 µg/mL | 12.5 µg/mL | 25 µg/mL | 12.5 µg/mL | 50 µg/mL | 
PRT1050 (HFSRCPKQYKHYCIKGRCRFVVAEQTPSCVCDEGYIGARCE; listed as Homo sapiens) | 25 µg/mL | 50 µg/mL | 25 µg/mL | 12.5 µg/mL | 12.5 µg/mL | 25 µg/mL | 12.5 µg/mL | 12.5 µg/mL | 12.5 µg/mL | 25 µg/mL | 12.5 µg/mL | 
PRT1051 (EQKLCKLRKGNCSSTVCGQDLQSHLCMCAEGYALSRDRKYCE; listed as Homo sapiens) | 50 µg/mL | 12.5 µg/mL | 25 µg/mL | 12.5 µg/mL | 12.5 µg/mL | 12.5 µg/mL | 50 µg/mL | 12.5 µg/mL | 12.5 µg/mL | 25 µg/mL | 50 µg/mL | 
PRT1053 (QLVSCPRNVSECSHDCVLTSEGPLCFCPEGSVLERDGKTCS; listed as Homo sapiens) | 12.5 µg/mL | 12.5 µg/mL | 12.5 µg/mL | 12.5 µg/mL | 12.5 µg/mL | 50 µg/mL | 100 µg/mL | 12.5 µg/mL | 50 µg/mL | 12.5 µg/mL | 100 µg/mL | 
PRT1055 (GADPCLYQNGGCEHICKKRLGTAWCSCREGFMKASDGKTCL; listed as Homo sapiens) | 12.5 µg/mL | 50 µg/mL | 12.5 µg/mL | 12.5 µg/mL | 50 µg/mL | 50 µg/mL | 25 µg/mL | 25 µg/mL | 50 µg/mL | 12.5 µg/mL | 12.5 µg/mL | 
PRT1056 (DQDDCAPVGCSMYARCISEGEDATCQCLKGFAGDGKLCS; listed as Homo sapiens) | 50 µg/mL | 12.5 µg/mL | 50 µg/mL | 12.5 µg/mL | 25 µg/mL | 12.5 µg/mL | 50 µg/mL | 50 µg/mL | 25 µg/mL | 12.5 µg/mL | 25 µg/mL | 
PRT1057 (DIDECEMGVPVCPPASSKCINTEGGYVCRCSEGYQGDGIHCL; listed as Homo sapiens) | 25 µg/mL | 50 µg/mL | 25 µg/mL | 12.5 µg/mL | 50 µg/mL | 50 µg/mL | 25 µg/mL | 25 µg/mL | 12.5 µg/mL | 25 µg/mL | 25 µg/mL | 
